Positions of bridges follow the written chain, without caps; N, C: chain ends. Residues, ends and D or L forms follow the SMILES beside them.
Tests used:
E. coli O157:H7 [1] = assay: Antimicrobial activity in different growth phases, viable plate counting; format: cell-based, Escherichia coli; conditions: 4 × MIC, LB, plate counts, n = 6
Procedure: The effect of growth phase on the anti-Salmonella and -E. coli O157:H7 activity of recombinant MccJ25 was determined by the viable plate counting method, as described previously ([Ma et al., 2016]; [Fan et al., 2017]), with minor modifications. Cultures of the strains in the early-log phase, late-log phase and stationary phase were washed, concentrated and diluted with sterilized phosphate-buffered saline (PBS) to approximately 10^7 CFU/mL. Then, 1 mL was incubated individually in 9 mL of PBS to reach an approximate 10^6 CFU/mL final concentration. The bacterial cells were then inoculated into 5 mL of LB containing different concentrations of MccJ25 (0, 1 × MIC, 2 × MIC, and 4 × MIC). At 0, 12, 24, and 48 h post incubation, the cultures (0.1 mL) were serially diluted with PBS and plated on LB and TSA agar. The plates were incubated at 37°C overnight to count colony. Colonies were counted to determine CFU/mL. The experiment was conducted with two replicates in three independent trials.

E. coli O157:H7 [2] = assay: Antimicrobial activity (killing) curves; format: cell-based, Escherichia coli; conditions: 4 × MIC; log phase, ~5 × 10^4 CFU/mL in LB, 37°C; plate counts at 0, 2, 4, 6 h; n = 6
Procedure: (§1) To further address the activity of recombinant MccJ25, antimicrobial activity curves and Live/Dead viability assay were performed. A single colony of S. Pullorum CVCC1791, S. Typhimurium ATCC14082, and E. coli O157:H7 was inoculated into 5 mL of LB. The culture was then incubated at 37°C with shaking at 200 rpm overnight. The following day, the culture was diluted 1:100 in fresh LB and again incubated at 37°C with shaking at 200 rpm. For antimicrobial activity, the bacteria were grown until they reached log phase. Approximately 5 × 10^4 CFU/mL bacteria were inoculated into 2 mL of LB containing different concentrations of the recombinant MccJ25 (0, 1 × MIC, 2 × MIC, and 4 × MIC). The cultures (0.1 mL) were serially diluted with PBS and plated on LB and TSA agar at 0, 2, 4, and 6 h. The plates were incubated at 37°C overnight to count colony. Colonies were counted to determine CFU/mL. The experiment was conducted with two replicates in three independent trials.

IPEC-J2 cells = assay: Salmonella-induced damage to IPEC-J2 cells (TEER, FD4, LDH); format: cell-based; conditions: 2 μg/mL for 6 h, Salmonella for 2 h; n = 9
Procedure: FIGURE S2 | Recombinant MccJ25 inhibited Salmonella-induced damage to IPEC-J2 cells. IPEC-J2 cells were cultured with or without recombinant MccJ25 (2 μg/mL) for 6 h in the absence or presence of Salmonella for 2 h. TEER (A), FD4 level (B), and LDH activity (C) in the IPEC-J2 cells were determined. Data are the means ± SEMs of three independent experiments, n = 9. Different superscript lowercase letters within each group indicate significant differences (P < 0.05); The asterisk denotes a significant difference in comparison with the control group (*P < 0.05, **P < 0.01).

S. Pullorum CVCC1791 = assay: Antimicrobial activity (killing) curves; format: cell-based, Salmonella Pullorum
Procedure: as §1, with “The cultures (0.1 mL) were serially diluted with PBS and plated on LB and TSA agar at 0, 2, 4, and 6 h.” left out

**Q.** What does the source list for `CC[C@H](C)[C@H](NC(=O)CNC(=O)[C@@H](NC(=O)[C@H](Cc1ccccc1)NC(=O)[C@H](Cc1ccc(O)cc1)NC(=O)[C@@H]1CCC(=O)NCC(=O)NCC(=O)N[C@@H](C)C(=O)NCC(=O)N[C@@H](Cc2c[nH]cn2)C(=O)N[C@@H](C(C)C)C(=O)N2CCC[C@H]2C(=O)N1)C(C)C)C(=O)NCC(=O)N[C@H](C(=O)N1CCC[C@H]1C(=O)N[C@H](C(=O)N[C@@H](CO)C(=O)N[C@@H](Cc1ccccc1)C(=O)N[C@@H](Cc1ccc(O)cc1)C(=O)NCC(=O)O)[C@@H](C)CC)[C@@H](C)O` [recombinant MccJ25, microcin J25] (GGAGHVPEYFVGIGTPISFYG-OH; lactam N-8 (inferred); C-terminus assumed)?
**A.** time to reduction to non-detectable levels (E. coli O157:H7 [1]; early-log phase cells): ≤ 12 h; time to reduction to non-detectable levels (E. coli O157:H7 [1]; late-log phase cells): ≤ 24 h; time to reduction to non-detectable levels (E. coli O157:H7 [1]; stationary phase cells): 48 h; incubation time after which the pathogen was eliminated (killing curve) (E. coli O157:H7 [2]): 6 h; S. Pullorum-induced decrease in TEER (IPEC-J2 cells): attenuated; S. Pullorum-induced increase in FD4 level (IPEC-J2 cells): attenuated; S. Pullorum-induced increase in LDH level (IPEC-J2 cells): attenuated; regrowth in killing curve (S. Pullorum CVCC1791; 1 × MIC, after 8 h of incubation): did not exhibit regrowth; incubation time after which all bacteria were killed (killing curve) (S. Pullorum CVCC1791; 1 × MIC, log phase, ~5 × 10^4 CFU/mL in LB, 37°C, plate counts, n = 6): 4 h; incubation time after which the pathogen was eliminated (killing curve) (S. Pullorum CVCC1791; 4 × MIC, log phase, ~5 × 10^4 CFU/mL in LB, 37°C, plate counts at 0, 2, 4, 6 h, n = 6): 6 h

Reference: PMC6718478, “A Comprehensive Antimicrobial Activity Evaluation of the Recombinant Microcin J25 Against the Foodborne Pathogens Salmonella and E. coli O157:H7 by Using a Matrix of Conditions” (Frontiers in Microbiology, 2019)
